Test results reported in ChEMBL document CHEMBL1150096, “Synthesis and evaluation of 3',5'-di-tert-butyl-4'-hydroxyflavones as potential inhibitors of low density lipoprotein (LDL) oxidation” (J Nat Prod, 1995).

Experiments:
[1] = Antioxidant activity assessed as inhibition of copper-induced human LDL oxidation; assay type: functional
[2] = Antioxidant activity assessed as inhibition of endothelial cell-induced human LDL oxidation; assay type: functional, cell-based

Row | Compound | IC50 [1] [nM] | IC50 [2] [nM]
1 | CCCCCCOc1ccc2c(=O)cc(-c3cc(C(C)(C)C)c(O)c(C(C)(C)C)c3)oc2c1 | 5000 | 50000
2 | COc1ccc2c(=O)cc(-c3cc(C(C)(C)C)c(OC)c(C(C)(C)C)c3)oc2c1 | > 100000 | –
3 | CCCCCOC(=O)COc1ccc2c(=O)cc(-c3cc(C(C)(C)C)c(O)c(C(C)(C)C)c3)oc2c1 | 5000 | –
4 | O=c1cc(-c2ccc(O)cc2)oc2cc(O)cc(O)c12 [APIGENIN] | > 100000 | –
5 | O=c1cc(-c2ccc(O)cc2)oc2cc(O)ccc12 | > 100000 | –
6 | VITAMIN E | > 100000 | 4000
7 | CC(C)(C)c1cc(C(=O)Oc2ccc3c(=O)cc(-c4cc(C(C)(C)C)c(O)c(C(C)(C)C)c4)oc3c2)cc(C(C)(C)C)c1O | 30000 | 70000
8 | CC(C)(C)c1cc(-c2cc(=O)c3ccc(OCc4ccc(Cl)cc4)cc3o2)cc(C(C)(C)C)c1O | 7000 | –
9 | Cc1cc(C(C)(C)C)c(O)c(C(C)(C)C)c1 [BUTYLATED HYDROXYTOLUENE] | 3000 | –
10 | CC(C)(C)c1cc(-c2cc(=O)c3ccc(OCC(=O)O)cc3o2)cc(C(C)(C)C)c1O [listing 1 of 2 here] | 3000 | 500
11 | CCOC(=O)COc1ccc2c(=O)cc(-c3cc(C(C)(C)C)c(O)c(C(C)(C)C)c3)oc2c1 | 3000 | 800
12 | CC(C)(Sc1cc(C(C)(C)C)c(O)c(C(C)(C)C)c1)Sc1cc(C(C)(C)C)c(O)c(C(C)(C)C)c1 [PROBUCOL] | 3000 | 4000
13 | CCOC(=O)CCCCOc1ccc2c(=O)cc(-c3cc(C(C)(C)C)c(O)c(C(C)(C)C)c3)oc2c1 | 3000 | –

Continued by falling IC50 [1], values first:

Row | IC50 [1] [nM] | IC50 [2] [nM] | Compound
14 | 3000 | – | CC(C)(C)c1cc(-c2cc(=O)c3ccc(OCC(=O)N4CCN(Cc5ccccc5)CC4)cc3o2)cc(C(C)(C)C)c1O
15 | 3000 | – | CCN(CC)C(=O)COc1ccc2c(=O)cc(-c3cc(C(C)(C)C)c(O)c(C(C)(C)C)c3)oc2c1
16 | 3000 | – | CC(C)(C)c1cc(-c2cc(=O)c3ccc(OCc4ccc5ccccc5n4)cc3o2)cc(C(C)(C)C)c1O
17 | 3000 | – | CC(C)(C)c1cc(-c2cc(=O)c3ccc(OCC(=O)N4CCCCC4)cc3o2)cc(C(C)(C)C)c1O
18 | 3000 | 500 | CCOC(=O)C(C)(C)Oc1ccc2c(=O)cc(-c3cc(C(C)(C)C)c(O)c(C(C)(C)C)c3)oc2c1
19 | 3000 | – | CC(C)(C)c1cc(-c2cc(=O)c3ccc(OCCO)cc3o2)cc(C(C)(C)C)c1O
20 | 3000 | 2500 | CC(C)(C)c1cc(-c2cc(=O)c3ccccc3o2)cc(C(C)(C)C)c1O
21 | 1000 | – | COc1ccc2c(=O)cc(-c3cc(C(C)(C)C)c(O)c(C(C)(C)C)c3)oc2c1
22 | 1000 | 2000 | CC(C)(C)c1cc(-c2cc(=O)c3ccc(O)cc3o2)cc(C(C)(C)C)c1O
23 | 800 | 800 | CC(C)(C)c1cc(-c2cc(=O)c3ccc(OCCN4CCOCC4)cc3o2)cc(C(C)(C)C)c1O
24 | 700 | – | CN(C)CCOc1ccc2c(=O)cc(-c3cc(C(C)(C)C)c(O)c(C(C)(C)C)c3)oc2c1
25 | 700 | – | CN(C)CCCOc1ccc2c(=O)cc(-c3cc(C(C)(C)C)c(O)c(C(C)(C)C)c3)oc2c1
26 | 500 | – | CC(C)(C)c1cc(-c2cc(=O)c3ccc(OCCCS(=O)(=O)O)cc3o2)cc(C(C)(C)C)c1O
27 | 100 | – | CC(C)(C)c1cc(-c2cc(=O)c3ccc(OCC(O)CO)cc3o2)cc(C(C)(C)C)c1O (stereo not drawn)
28 | 100 | – | CC(C)(C)c1cc(-c2cc(=O)c3ccc(OCC(=O)O)cc3o2)cc(C(C)(C)C)c1O [listing 2 of 2 here]
